# Columns and labels:
# Fn 12230 [1] = assay: Effects of Congo Red on Fn viability (OD600 and CFU); format: cell-based, Fusobacterium nucleatum; conditions: incubation 48 or 72 hrs
# Description: FIG. 10A-10B. 10A. Schematic illustration of preparation of detergent-resistant bacterial pellets and its use as scaffold for biofilm growth. 10B. Effects of Congo Red on Fn viability. Fn 12230 was incubated in PBS (top row), 10 mg/ml Congo Red (10 CR), or 50 mg/ml Congo Red (50 CR) for 48 hrs (left panel) or 72 hrs (right panel), followed by measurement of OD600 (OD) and viable counts (CFU).
# [2] = system: Fn binding to human CRC cells DLD1; assay: Cell culture attachment assay, DLD1; format: cell-based; conditions: bacteria washed twice with 1 mg/ml Congo Red, MOI 50:1
# Fn 12230 [3] = assay: pH tolerance assay, wild-type Fn; format: cell-based, Fusobacterium nucleatum; conditions: stationary phase; pH 4.0; 50 μg/ml Congo Red; 1 or 2 hours
# US1 (ΔfadA) = assay: pH tolerance assay, fadA-deletion mutant; format: cell-based, Fusobacterium nucleatum; conditions: stationary phase; pH 4.0; 50 μg/ml Congo Red; 1 or 2 hours
# HCT116 xenograft tumors = assay: CRC xenograft model; format: in vivo; conditions: Fn 12230 washed in 1 mg/ml Congo Red, injected into tumors; IHC one week later; nude mice
# Description: FIG. 5A-5D. Amyloid-like FadA mediates colonization in CRC and promotes tumor growth in vivo. 5A. Analysis of Fn colonization in mouse xenograft tumors by IHC. An inoculum of 5×10^6 HCT116 cells was injected subcutaneously and bilaterally into the nude mice. Once the tumors became visible (after 3-4 days), approximately 5×10^6 CFU of Fn 12230 washed in PBS or 1 mg/ml Congo Red (CR) were injected into the tumors. The tumors were extracted one week later, and the formalin-fixed and embedded (FFPE) tissues were stained with mAb 7H7. Note the brown stains in tumor injected with PBS-washed tumor, but not in CR-washed tumor. 5B. Effects of secreted amyloid-like FadA on tumor growth. HCT116 cells were injected into the nude mice as described above, followed by injection of 5×10^6 CFU of Fn 12230 (Fn, n=7), lam (n=3) or US1 (ΔfadA, n=4). The tumor volumes were measured immediately before bacteria injection (Day 0, designated as 100%), and at 3 days after injection (Day 3). The horizontal lines represent averages of tumor volumes (left panel). The individual tumors are shown (right panel). **p<0.01, ***p<0.001 (t-test). 5C. […] The tumor volumes were measured on Day 0 and Day 5 as described above. […] The tumor volumes were measured described above. […]
# CRC xenograft model. […] The tumor length and width were measured using calipers and tumor volumes were calculated using the following formula: Volume=(width)2×length/2. […]
compound,measurement,setting,value
Nc1c(/N=N/c2ccc(-c3ccc(/N=N/c4cc(S(=O)(=O)O)c5ccccc5c4N)cc3)cc2)cc(S(=O)(=O)O)c2ccccc12 [Congo Red],viability of Fn,Fn 12230 [1],without affecting the viability of Fn
same,effect on Fn binding to DLD1,[2]; log phase,little or no effect on binding
same,reduction of Fn binding to DLD1,[2]; stationary phase,~5 fold
same,viability of wild-type Fn in acidic environment,Fn 12230 [3],drastically reduced viability of wild-type Fn to the similar levels as US1
same,viability of US1 (ΔfadA) in acidic environment,US1 (ΔfadA),without affecting US1 (ΔfadA)
same,Fn colonization in xenograft tumors,HCT116 xenograft tumors,significantly inhibited Fn colonization in xenograft tumors

# Reference: patent US12030929B2, “Fusobacterium nucleatum amyloid-like FadA for diagnosis and treatment of Fn-mediated pathogenesis” (The Trustees of Columbia University in the City of New York, priority 2021, dated 2024)
